Where two headings read alike, the source gives them in different places. Marks after values point to notes of the source that are not given here.
Tests used:
Assay type in all cases: in vivo
[1] = test system: Erysiphe graminis f. sp. tritici; assay: Test A: wheat powdery mildew, preventive spray on wheat seedlings, disease rating
Procedure, shortened: (§1)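 Preventive foliar spray to run-off on wheat seedlings, followed by disease rating. Test rate 200 ppm (equal to 500 g/ha), with some entries at 40 ppm or 50 ppm. Suspensions made in acetone/purified water 50/50 containing 250 ppm Trem 014.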

[2] = test system: Puccinia recondita f. sp. tritici; assay: Test B: wheat leaf rust, preventive spray on wheat seedlings, disease rating
Procedure, shortened: as §1

Septoria nodorum = assay: Test C: wheat glume blotch, preventive spray on wheat seedlings, disease rating
Procedure, shortened: as §1

Septoria tritici = assay: Test D: wheat leaf blotch, preventive spray on wheat seedlings, disease rating
Procedure, shortened: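 Preventive test: one day after run-off spraying (200 ppm, equal to 500 g/ha, unless marked 40 or 50 ppm; acetone/water plus 250 ppm Trem 014), seedlings received S. tritici spore inoculum. Disease scored after 48 h at 24 °C in saturated air and 19 further days at 20 °C.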

Fusarium graminearum = details: wheat head scab
Botrytis cinerea = assay: Test F: tomato Botrytis, preventive spray on tomato seedlings, disease rating
Procedure, shortened: (§2)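 Disease ratings follow a preventive run-off spray of tomato seedlings. Compounds were first dissolved in acetone (3% of volume), then suspended in 50/50 acetone/water containing 250 ppm Trem 014. Test level 200 ppm (equivalent to 500 g/ha) except where marked * for 40 ppm or ** for 50 ppm.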

Alternaria solani = assay: Test H: tomato early blight, preventive spray on tomato seedlings, disease rating
Procedure, shortened: as §2

Rhizoctonia oryzae = assay: Test I: turf brown patch, preventive spray on creeping bent grass seedlings, disease rating
From the text: The test compounds were first dissolved in acetone in an amount equal to 3% of the final volume and then suspended at the desired concentration (in ppm) in acetone and purified water (50/50 mix) containing 250 ppm of the surfactant Trem® 014 (polyhydric alcohol esters). The resulting test suspensions were then used in Tests A-L. Spraying a 200 ppm test suspension to the point of run-off on the test plants was the equivalent of an application rate of 500 g/ha. The test suspension was sprayed to the point of run-off on creeping bent grass seedlings. […] A dash (-) indicates no test results. All results are for 200 ppm except where followed by an “*”, which indicates 40 ppm or “**”, which indicates 50 ppm.

Phytophthora infestans = details: tomato late blight
Plasmopara viticola = assay: Test K: grape downy mildew, spray on grape seedlings after inoculation, disease rating
From the text: The test compounds were first dissolved in acetone in an amount equal to 3% of the final volume and then suspended at the desired concentration (in ppm) in acetone and purified water (50/50 mix) containing 250 ppm of the surfactant Trem® 014 (polyhydric alcohol esters). The resulting test suspensions were then used in Tests A-L. Spraying a 200 ppm test suspension to the point of run-off on the test plants was the equivalent of an application rate of 500 g/ha. Grape seedlings were inoculated with a spore suspension of Plasmopara viticola (the causal agent of grape downy mildew) and incubated in a saturated atmosphere at 20° C. for 24 h. After a short drying period, the test suspension was sprayed to the point of run-off on the grape seedlings and then moved to a growth chamber at 20° C. for 6 days, after which the test units were placed back into a saturated atmosphere at 20° C. for 24 h. Upon removal, disease ratings were made. […] A dash (-) indicates no test results. All results are for 200 ppm except where followed by an “*”, which indicates 40 ppm or “**”, which indicates 50 ppm.

Pythium aphanidermatum = assay: Test L: bluegrass pythium blight, preventive spray on bluegrass seedlings, disease rating
From the text: The test compounds were first dissolved in acetone in an amount equal to 3% of the final volume and then suspended at the desired concentration (in ppm) in acetone and purified water (50/50 mix) containing 250 ppm of the surfactant Trem® 014 (polyhydric alcohol esters). The resulting test suspensions were then used in Tests A-L. Spraying a 200 ppm test suspension to the point of run-off on the test plants was the equivalent of an application rate of 500 g/ha. The test suspension was sprayed to the point of run-off on bluegrass seedlings. […] A dash (-) indicates no test results. All results are for 200 ppm except where followed by an “*”, which indicates 40 ppm or “**”, which indicates 50 ppm.

| Compound | Percentage Disease Control, Test B ([2]; 40 ppm (*)) | Percentage Disease Control, Test C (Septoria nodorum; 40 ppm (*)) | Percentage Disease Control, Test D (Septoria tritici; 40 ppm (*)) | Percentage Disease Control, Test F (Botrytis cinerea; 200 ppm) | Percentage Disease Control, Test I (Rhizoctonia oryzae; 200 ppm) | Percentage Disease Control, Test J (Phytophthora infestans; 200 ppm) | Percentage Disease Control, Test K (Plasmopara viticola; 200 ppm) | Percentage Disease Control, Test L (Pythium aphanidermatum; 200 ppm) | Percentage Disease Control, Test A ([1]; 200 ppm) | Percentage Disease Control, Test E (Fusarium graminearum; 200 ppm) | Percentage Disease Control, Test H (Alternaria solani; 200 ppm) | Percentage Disease Control, Test B ([2]; 200 ppm) | Percentage Disease Control, Test C (Septoria nodorum; 200 ppm) | further results |
| --- | --- | --- | --- | --- | --- | --- | --- | --- | --- | --- | --- | --- | --- | --- |
| COC(=O)NCc1cc(-c2ccn(-c3ccccc3)n2)ccc1Cl [Cmpd 34] | 100* % | 97* % | 100* % | 0% | 0% | 0% | 78% | 0% |  |  |  |  |  | Percentage Disease Control, Test A ([1]; 40 ppm (*)): 97* %; Percentage Disease Control, Test E (Fusarium graminearum; 40 ppm (*)): 98* %; Percentage Disease Control, Test H (Alternaria solani; 40 ppm (*)): 90* % |
| CC[Si](C)(C)Cn1ccc(-c2ccc(Cl)c(CNC(=O)OC)c2)n1 [Cmpd 27] | 99* % | 94* % | 96* % | 0% | 0% | 0% | 76% | 0% | 96% | 93% | 0% |  |  |  |
| COC(=O)NCc1cc(C(C)=NOCC(C)[Si](C)(C)C)ccc1Cl (centres unmarked) [Compound 2, methyl N-[[2-chloro-5-[1-[[2-(trimethylsilyl)propoxy]imino]ethyl]phenyl]-methyl]carbamate] |  |  | 91* % | 0% | 0% | 0% | 70% | 0% | 100% | 100% |  | 100% | 99% |  |
| COC(=O)NOc1cc(-c2cccc(OC(F)(F)F)c2)ccc1Cl [Cmpd 18] | 99* % | 99* % | 98* % | 0% | 0% | 89% | 81% | 98% |  | 100% | 70% |  |  | Percentage Disease Control, Test A ([1]; 40 ppm (*)): 100* % |
| COC(=O)NCc1cc(-c2ccn(CCC#N)n2)ccc1Cl [Cmpd 31] | 0* % | 0* % | 69* % |  |  |  |  |  |  |  |  |  |  | Percentage Disease Control, Test A ([1]; 40 ppm (*)): 0* %; Percentage Disease Control, Test F (Botrytis cinerea; 40 ppm (*)): 0* %; Percentage Disease Control, Test H (Alternaria solani; 40 ppm (*)): 0* %; Percentage Disease Control, Test I (Rhizoctonia oryzae; 40 ppm (*)): 0* %; Percentage Disease Control, Test J (Phytophthora infestans; 40 ppm (*)): 0* %; Percentage Disease Control, Test K (Plasmopara viticola; 40 ppm (*)): 20* %; Percentage Disease Control, Test L (Pythium aphanidermatum; 40 ppm (*)): 0* % |
| COC(=O)NCc1cc(C(C)=NOCC[Si](C)(C)C)ccc1Cl [Compound 1, methyl N-[[2-chloro-5-[1-[[2-(trimethylsilyl)ethoxy]imino]ethyl]phenyl]-methyl]carbamate] |  |  | 100* % | 0% | 0% | 0% | 66% | 0% | 100% | 100% | 0% | 100% | 100% |  |
| COC(=O)NCc1cc(-c2ccn(CCCC#N)n2)ccc1Cl [Cmpd 32] |  |  |  | 0% | 0% | 0% | 34% | 0% | 41% |  | 0% | 80% | 0% | Percentage Disease Control, Test D (Septoria tritici; 200 ppm): 88% |
| C#CCCCn1ccc(-c2ccc(Cl)c(CNC(=O)OC)c2)n1 [Cmpd 24] | 99* % | 99* % |  | 0% | 0% |  | 83% |  |  |  | 0% |  |  | Percentage Disease Control, Test A ([1]; 40 ppm (*)): 96* %; Percentage Disease Control, Test E (Fusarium graminearum; 40 ppm (*)): 96* %; Percentage Disease Control, Test J (Phytophthora infestans; 40 ppm (*)): 0* % |
| C=C[Si](C)(C)CON=C(C)c1ccc(Cl)c(CNC(=O)OC)c1 [Compound 4] |  |  | 59* % | 37% | 0% | 0% | 74% | 0% | 98% | 97% |  | 99% | 99% |  |
| COC(=O)NCc1cc(-c2ccn(C(C)[Si](C)(C)C)n2)ccc1Cl (centres unmarked) [Cmpd 29] |  |  |  |  |  |  |  |  |  |  |  |  |  | Percentage Disease Control, Test A ([1]; 50 ppm (**)): 78** %; Percentage Disease Control, Test B ([2]; 50 ppm (**)): 98** %; Percentage Disease Control, Test C (Septoria nodorum; 50 ppm (**)): 82** %; Percentage Disease Control, Test D (Septoria tritici; 50 ppm (**)): 96** %; Percentage Disease Control, Test F (Botrytis cinerea; 50 ppm (**)): 0** %; Percentage Disease Control, Test H (Alternaria solani; 50 ppm (**)): 67** %; Percentage Disease Control, Test I (Rhizoctonia oryzae; 50 ppm (**)): 0** %; Percentage Disease Control, Test J (Phytophthora infestans; 50 ppm (**)): 0** %; Percentage Disease Control, Test K (Plasmopara viticola; 50 ppm (**)): 27** %; Percentage Disease Control, Test L (Pythium aphanidermatum; 50 ppm (**)): 0** % |
| COC(=O)NCc1cc(-c2ccn(CCC=C(C)C)n2)ccc1Cl [Cmpd 30] |  |  |  | 0% | 0% | 0% | 74% | 0% | 83% |  | 0% | 98% | 73% | Percentage Disease Control, Test D (Septoria tritici; 200 ppm): 90% |
| COC(=O)NCc1cc(-c2ccn(Cc3cccc(C)n3)n2)ccc1Cl [Cmpd 20] |  |  |  | 0% | 0% | 0% | 0% | 0% | 99% | 72% | 0% | 100% | 96% |  |
| C=C(CON=C(C)c1ccc(Cl)c(CNC(=O)OC)c1)C[Si](C)(C)C [Compound 3] |  |  | 16* % | 0% | 0% | 0% | 26% | 0% | 98% | 87% |  | 100% | 99% |  |
| COC(=O)NCc1cc(-c2cc[nH]n2)ccc1Cl [Cmpd 21] |  |  |  | 0% | 0% | 0% | 0% | 0% | 0% | 0% | 0% | 79% | 0% |  |
